Reference: article PMC7357490, “Ancestral Resurrection and Directed Evolution of Fungal Mesozoic Laccases” (Applied and Environmental Microbiology, 2020)
Read-outs that look alike come from different tables or passages of the source. Blank lines part the entries; values can stand above or below the compound they belong to.

Columns and labels:
LacAnc98 [1] = assay: spectrophotometric steady-state kinetics, […] nm; type: biochemical, synthetic construct; conditions: room temperature; 100 mM sodium phosphate/citrate pH 5.0; air O2 as co-substrate
LacAnc100 [2] = assay: spectrophotometric steady-state kinetics, […] nm; type: biochemical, synthetic construct; conditions: room temperature; 100 mM sodium phosphate/citrate pH 5.0; air O2 as co-substrate
OB-1 [3] = target: T1, OB-1 (basidiomycete PM1, UniProt Q12571, V183A/H229Y/S245G/A260P/D302E/S447N/A482T, form not given); assay: spectrophotometric steady-state kinetics, […] nm; type: biochemical; conditions: room temperature; 100 mM sodium phosphate/citrate pH 5.0; air O2 as co-substrate
T1 construct: N-terminal extension from leader processing (EAEA site) possible
T1 sequence (Q12571 entry or part of it V183A/H229Y/S245G/A260P/D302E/S447N/A482T, form open): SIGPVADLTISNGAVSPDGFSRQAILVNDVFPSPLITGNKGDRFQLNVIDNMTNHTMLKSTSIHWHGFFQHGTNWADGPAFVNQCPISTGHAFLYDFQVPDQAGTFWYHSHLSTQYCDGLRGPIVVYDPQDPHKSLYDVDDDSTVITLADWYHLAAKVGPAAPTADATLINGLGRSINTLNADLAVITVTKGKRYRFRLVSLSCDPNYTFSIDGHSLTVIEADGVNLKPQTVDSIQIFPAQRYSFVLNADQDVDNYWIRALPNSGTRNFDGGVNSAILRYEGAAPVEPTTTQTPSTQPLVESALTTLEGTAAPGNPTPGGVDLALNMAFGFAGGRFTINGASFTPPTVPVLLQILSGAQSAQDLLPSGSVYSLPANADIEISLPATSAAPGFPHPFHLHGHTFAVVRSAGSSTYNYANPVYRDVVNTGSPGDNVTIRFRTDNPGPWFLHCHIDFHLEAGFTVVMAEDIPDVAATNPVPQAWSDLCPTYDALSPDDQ

LacAnc98 [4] = conditions: read-out: LacAnc98; room temperature; 100 mM sodium phosphate/citrate pH 4.0; air O2 as co-substrate
LacAnc100 [5] = conditions: read-out: LacAnc100; room temperature; 100 mM sodium phosphate/citrate pH 4.0; air O2 as co-substrate
LacAnc98 [6] = assay: spectrophotometric steady-state kinetics, […] nm; type: biochemical, synthetic construct; conditions: room temperature; 100 mM sodium phosphate/citrate pH 5.0; air O2 as co-substrate; remark: listed apart in the source
LacAnc100 [7] = assay: spectrophotometric steady-state kinetics, […] nm; type: biochemical, synthetic construct; conditions: room temperature; 100 mM sodium phosphate/citrate pH 5.0; air O2 as co-substrate; remark: listed apart in the source
OB-1 [8] = target: T1, OB-1; assay: spectrophotometric steady-state kinetics, […] nm; type: biochemical; conditions: room temperature; 100 mM sodium phosphate/citrate pH 5.0; air O2 as co-substrate; remark: listed apart in the source
OB-1 [9] = target: T1, OB-1; assay: spectrophotometric steady-state kinetics, […] nm; type: biochemical; conditions: room temperature; 100 mM sodium phosphate/citrate pH 5.0; air O2 as co-substrate; remark: listed apart in the source
LacAnc100 [10] = assay: spectrophotometric steady-state kinetics, […] nm; type: biochemical, synthetic construct; conditions: room temperature; 100 mM sodium phosphate/citrate pH 5.0; air O2 as co-substrate; remark: listed apart in the source
LacAnc98 [11] = assay: spectrophotometric steady-state kinetics, […] nm; type: biochemical, synthetic construct; conditions: room temperature; 100 mM sodium phosphate/citrate pH 5.0; air O2 as co-substrate; remark: listed apart in the source

Km (LacAnc98 [1]): 8700 ± 300 µM
Km (LacAnc100 [2]): 6700 ± 700 µM
Km (OB-1 [3]): 2600 ± 400 µM
SMILES: COc1ccccc1O [Guaiacol]

Km (LacAnc98 [4]): 69 ± 2 µM
Km (LacAnc100 [5]): 60 ± 1 µM
SMILES: CCn1c(=NN=c2sc3cc(S(=O)(=O)O)ccc3n2CC)sc2cc(S(=O)(=O)O)ccc21 [ABTS]

Km (LacAnc98 [6]): 230 ± 40 µM
Km (LacAnc100 [7]): 330 ± 70 µM
Km (OB-1 [8]): 320 ± 20 µM
SMILES: COc1cc(/C=C/C(=O)O)cc(OC)c1O [Sinapic acid]

Km (OB-1 [9]): 150 ± 10 µM
Km (LacAnc100 [10]): 500 ± 20 µM
Km (LacAnc98 [11]): 420 ± 20 µM
SMILES: COc1cccc(OC)c1O [DMP]
